# According to US20250041330A1, “METHOD OF TREATING OBESITY BY SELECTIVE TARGETING OF VISCERAL ADIPOSITY USING POLYCATION NANOMEDICINE” (THE TRUSTEES OF COLUMBIA UNIVERSITY IN THE CITY OF NEW YORK, priority 2022, published 2025):
# Test system: 3T3-L1 cells
# Assay: 3T3-L1 adipocyte differentiation (lipid staining, qPCR)
# Format: cell-based, mouse
# Details: NMN 20 mM with P-G3 10 μg/ml, day 0-3 of differentiation
# Protocol: 3T3-L1 (ATCC CL-173) and C3H10T1/2 (CCL-226) cells were purchased from ATCC and cultured in high glucose DMEM supplemented with 10% calf serum (CS, Gemini Bio-Products 100-506) or FBS (heat-inactivated, Corning 35-011-CV), and 1× Pen Strep (Thermo Fisher). Cells were differentiated in the standard adipogenic cocktail after reaching confluence for 2 days. The cocktail contains DMEM, 10% FBS, 1 μM dexamethasone (DEX), 10 μg/ml insulin and 0.5 mM 3-isobutyl-1-methylxanthine (IBMX). 5 μM Rosiglitazone was used in the first two days to facilitate C3H10T1/2 cells' differentiation. After induction for two days, cells were maintained in a complete medium containing 2.5 μg/ml insulin until fully differentiated. P-G3 polymers or NPs (10 μg/ml) were added at indicated times, and cells were harvested during differentiation for analyses. Lipid droplets were visualized using Oil Red O staining or BODIPY staining. 3T3-L1 cells were treated with rapamycin (100 nM) from Day 4 to Day 6. […]
# Total RNA from tissues or cells was extracted by using the TriZol reagent (Thermo Fisher) in combination with an RNA isolation kit from Macherey-Nagel. […] Bio-Rad CFX96 Real-Time PCR system was used to perform quantitative real-time PCR (qPCR) with goTaq qPCR Master Mix (Promega). The relative gene expression was calculated by using the ΔΔCt method with Cyclophilin A or Rpl23 as the reference gene. […]
compound,measurement,value
"NC(=O)c1ccc[n+]([C@@H]2O[C@H](COP(=O)([O-])O)[C@@H](O)[C@H]2O)c1 [NMN, nicotinamide mononucleotide]",effect on P-G3's pro-adipogenic effect,counteracted the pro-adipogenic effect of P-G3
